Starred links: 1 amine or outer side, 2 acyl side, 3 side chain; linkers in the order of their positions; H or OH if unused. Positions of bridges follow the written chain, without caps; N, C: chain ends. Non-standard residues stand in square brackets, D forms with d. Residues, ends and D or L forms follow the SMILES beside them. Chains are numbered I, II in the order given. Actinocin(9to1) = Cc1c2oc3c(C)ccc(C(=O)[*:1])c3nc-2c(C(=O)[*:2])c(N)c1=O; NMeV = CN[C@H](C(=O)O)C(C)C; Sar = CNCC(=O)O
Tests used:
Jurkat P40 cells = assay: time-resolved apoptosis detection with fluorescence-labeled annexin V by fluorescence microscopy; format: cell-based; settings: 1 μg/ml
Protocol: 100,000 Jurkat P40 cells were simultaneously mixed with 1 μg/ml actinomycin D in the presence of 2 mM CaCl2 and fluorescence-labeled annexin V and incubated at 37° C. in 5% CO2 over a period of up to 24 h. After 4, 6, 8, 10 and 24 h, an aliquot was withdrawn, applied to a glass slide, fixed and analyzed by fluorescence microscopy. […] When the time elapsed was extended and the cell destruction more advanced, there would be a time when fluorescent cell debris would no longer be visible. It was shown that apoptosis in a solution can be followed in a time-resolved manner by recording images at different times. The reaction mix was prepared at the beginning, and subsequently, the increasing apoptosis was only analyzed by means of imaging methods.

[1] = marker which binds phosphatidylserine; binding depends on calcium cations; cited from earlier work

Cc1c2oc3c(C)ccc(C(=O)N[C@@H]4C(=O)N[C@H](C(C)C)C(=O)N5CCC[C@H]5C(=O)N(C)CC(=O)N(C)[C@@H](C(C)C)C(=O)O[C@@H]4C)c3nc-2c(C(=O)N[C@@H]2C(=O)N[C@H](C(C)C)C(=O)N3CCC[C@H]3C(=O)N(C)CC(=O)N(C)[C@@H](C(C)C)C(=O)O[C@@H]2C)c(N)c1=O [actinomycin D] (I: T[dV]P[Sar][NMeV] / II: T[dV]P[Sar][NMeV]; ester I:1-I:C, II:1-II:C; linker I:N-II:N via Actinocin(9to1))
degree of apoptosis (number of annexin V stained cells in the observation field) (Jurkat P40 cells; 100,000 Jurkat P40 cells, 2 mM CaCl2, 37° C., 5% CO2, aliquots after 4, 6, 8, 10 and 24 h): the degree of apoptosis increases
secondary necrosis (cell fragments) (Jurkat P40 cells; Jurkat P40 cells, after 24 h): smaller cell fragments become visible which indicate secondary necrosis

annexin V: marker which binds phosphatidylserine
Kd [1]: 500 pM
